Assay [1] has as its target T1, OX2R (Homo sapiens, UniProt O43614).
T1 sequence (O43614 1-444): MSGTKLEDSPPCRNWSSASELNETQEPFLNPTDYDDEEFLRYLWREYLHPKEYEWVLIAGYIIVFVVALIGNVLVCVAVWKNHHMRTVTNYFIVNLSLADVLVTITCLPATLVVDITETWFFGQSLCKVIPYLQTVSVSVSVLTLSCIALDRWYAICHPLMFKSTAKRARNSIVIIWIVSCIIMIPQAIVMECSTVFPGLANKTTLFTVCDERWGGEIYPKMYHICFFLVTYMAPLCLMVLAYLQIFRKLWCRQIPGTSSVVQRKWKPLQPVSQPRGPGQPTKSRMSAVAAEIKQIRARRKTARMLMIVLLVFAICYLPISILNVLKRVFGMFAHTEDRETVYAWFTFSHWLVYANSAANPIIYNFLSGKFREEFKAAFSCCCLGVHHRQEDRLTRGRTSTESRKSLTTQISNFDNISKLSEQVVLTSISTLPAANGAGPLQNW
The settings on record: WO2016/034882 Table 2 (Method A), cited from earlier work; for IC50: conversion of pIC50.

Assay [2] concerns the target T1, OX2R. The following applies: WO2016/034882 Table 3 (Method B), cited from earlier work; for IC50: conversion of pIC50.
A further assay deals with T2, human Orexin 1 receptor (Homo sapiens, UniProt O43613).
T2 construct: stably expressing the full-length human Orexin 1 receptor; expressed in transfected cells; host or cells: CHO-K1 (CHO-K1/hOx1), co-expressing the aequorin photoprotein
T2 sequence (O43613 1-425): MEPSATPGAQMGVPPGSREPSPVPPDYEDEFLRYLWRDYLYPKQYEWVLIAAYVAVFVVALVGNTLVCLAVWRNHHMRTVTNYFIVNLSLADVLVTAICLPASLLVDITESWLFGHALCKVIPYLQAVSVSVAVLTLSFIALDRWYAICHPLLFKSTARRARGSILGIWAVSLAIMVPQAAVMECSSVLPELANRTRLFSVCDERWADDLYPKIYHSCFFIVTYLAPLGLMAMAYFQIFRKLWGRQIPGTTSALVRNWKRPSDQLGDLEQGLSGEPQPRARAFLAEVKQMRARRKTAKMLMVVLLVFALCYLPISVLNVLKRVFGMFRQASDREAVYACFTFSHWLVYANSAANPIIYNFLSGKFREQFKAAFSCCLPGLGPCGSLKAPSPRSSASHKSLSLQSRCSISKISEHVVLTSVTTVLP
Briefly: Assay A: in vitro testing of OX1R potency, OX1R IP1 (HTRF) in CHO-K1/hOx1 cells. The assay is classed as cell-based. The text has this:
Activation of the orexin receptors expressed in cell lines results in an increase in intracellular IP3 concentration. IP1, a downstream metabolite of IP3, accumulates in cells following receptor activation and is stable in the presence of LiCI. Using Homogeneous Time-Resolved Fluorescence technology with Lumi4-Tb cryptate (commercially available from Cisbio Bioassay) and a suitable fluorescence plate reader. […] This technique is used to characterize pharmacological modification of the orexin receptors.
IP1 measurements are performed in CHO-K1 cells stably expressing the full-length human Orexin 1 receptor and the aequorin photoprotein. Cells are cultivated in Ham's nutrient mixture F12 medium with 10% fetal calf serum, in a 37°C, 95% humidity and 5% CO2 incubator. The CHO-K1/hOx1 cell mass is expanded to larger cell numbers. The cells are obtained as frozen cells in cryo-vials and stored until use at -150°C.
In preparation for the assay, 24 hours before the assay, the cells are thawed at 37°C and immediately diluted with cell culture medium. After centrifugation, the cell pellet is re-suspended in medium and then distributed into the assay plates with a density of 10000 cells/25 µL per well. The plates are incubated for one hour at room temperature to reduce edge effects before they are incubated for 24 hours at 37°C/5% CO2. Compounds are prepared by an 8-point serial dilution in DMSO and a final dilution step into assay buffer (HBSS with 20 mM HEPES, 0.1% BSA and 50 mM LiCl, pH 7.4) to ensure a final DMSO concentration of 1% in the assay.
On the day of the assay, cells in the plate are washed twice with 60 µL assay buffer (20 µL buffer remained in the wells after washing), followed by adding 5 µL per well of compounds diluted in assay buffer. After 15 minutes of incubation at room temperature 5 µL per well of Orexin A peptide (final concentration: 0.5 nM, and/or 50 nM for selected compounds) dissolved in assay buffer is added to the assay plate. The assay plate is incubated for 60 minutes at 37°C. Then 5 µL per well of Anti-IP1-Cryptate Tb solution and 5 µL per well of IP1-d2 dilution are added and the plate is incubated for a further 60 minutes light protected at room temperature.
8-point four parametric non-linear curve fitting and determination of IC50 values and Hill slopes is performed using a regular analysis software e.g. AssayExplorer (Accelrys).
On the technique in general: Time-resolved FRET reads energy transfer from a long-lived donor to a nearby acceptor.

A further assay has as its target T3, human orexin 2 receptor (Homo sapiens, UniProt O43614).
T3 construct: stably expressing the full-length human orexin 2 receptor; expressed in transfected cells; host or cells: CHO-K1 (CHO-K1/hOx2), co-expressing the aequorin photoprotein
T3 sequence (O43614 1-444): T1 sequence (O43614 1-444)
Briefly: Assay B: in vitro testing of OX2R potency, OX2R IP1 (HTRF) in CHO-K1/hOx2 cells. The assay is classed as cell-based. The following applies: 0.5 nM Orexin A concentration.

Assay [3] deals with T4, OX1R (Homo sapiens, UniProt O43613).
T4 sequence (O43613 1-425): T2 sequence (O43613 1-425)
Put plainly: OX1R assay of WO2016/034882, Table 3 (Method B). The format is cell-based. The settings on record: ratio from WO2016/034882 Table 3 (Method B) values.

The target in assay [4] is T1, OX2R. The following applies: data as described in WO03/051872 (page 16-18); given as a range; cited from earlier work.
The target of assay [5] is T4, OX1R. The following applies: data as described in WO03/051872 (page 16-18); given as a range; cited from earlier work.
[6] abbreviates: selectivity ratio, OX1R Kb at 50 nM Orexin A, OX2R Kb at 0.5 nM Orexin A.

The values below come from EP3442966B1, “NOVEL N-[(PYRIMIDINYLAMINO)PROPANYL]- AND N-[(PYRIDINYLAMINO)PROPANYL]ARYLCARBOXAMIDES” (Boehringer Ingelheim International GmbH, priority 2016, dated 2017).

Structures are written as SMILES. Read-outs that look alike come from different tables or passages of the source. Bounds are passed on as bounds.

By IC50 is commonly meant the midpoint of a concentration-inhibition curve. For the molecule `CC[C@@H](CNc1ccc(Cl)cn1)N(C)C(=O)c1cc(C)ccc1-n1nccn1` [Ex 1 in WO2016/ 034882], on OX2R [1], the IC50 is 1260 nM.
Regarding `CC[C@@H](CNc1ncc(C(F)(F)F)cn1)N(C)C(=O)c1cc(Cl)ccc1-n1nccn1` [Ex 39 in WO2016/ 034882], the IC50 at OX2R [2] was 1580 nM. In addition, on OX2R [1], the “OX2R pIC50” value was below 5.0 and the 50% inhibitory concentration (IC50) was below 10000 nM.
With `CC[C@@H](CNc1ccc(C(F)(F)F)cn1)N(CC)C(=O)c1nc(C)ccc1-n1nccn1` [Ex 71 in WO2016/ 034882], the “OX2R pIC50” value on OX2R [2] is reported as 6.6. Besides, the “OX2R Kb / OX1R Kb” value at human Orexin 1 receptor is recorded as 905.
Take `CC[C@@H](CNc1ncc(C(F)(F)F)cn1)N(CC)C(=O)c1nc(C)ccc1-n1nccn1` [Ex 73 in WO2016/ 034882]: at OX2R [2], the “OX2R pIC50” value was below 6.0 and the IC50 was above 1000 nM.
Molecule `CC[C@@H](CNc1ncc(C(F)(F)F)cn1)N(C)C(=O)c1nc(C)ccc1-c1ncccn1` [Ex 84 in WO2016/ 034882] yielded a Kb at human orexin 2 receptor of 229 nM.
`CC[C@@H](CNc1ncc(C(F)(F)F)cn1)N(C)C(=O)c1c(F)cccc1-n1nccn1` [Ex 91 in WO2016/ 034882]: at OX1R [3], the “OX2R IC50 / OX1R IC50” value is on record as “Table 3: 318”. Further, the Kb at human orexin 2 receptor was determined as 313 nM. Also, the “OX2R pIC50” value on OX2R [2] is recorded as below 5.1.
Take `CCN(C(=O)c1c(-n2nccn2)ccc(C)c1F)[C@@H](C)CNc1ncc(C(F)(F)F)cn1` [Example 1]: on human Orexin 1 receptor (setting [6]), the “OX2R Kb / OX1R Kb” value amounted to 529.
For `CCN(C(=O)c1cc(C)ccc1-n1nccn1)[C@@H](C)CNc1ncc(C(F)(F)F)cn1` [Example 2], at human Orexin 1 receptor (setting [6]), the “OX2R Kb / OX1R Kb” value came to 379.
Take `CCN(C(=O)c1cc(OC)ccc1-n1nccn1)[C@@H](C)CNc1ncc(C(F)(F)F)cn1` [Example 4]: the “OX2R Kb / OX1R Kb” value at human Orexin 1 receptor (setting [6]) is recorded as 736.
For the molecule `CCN(C(=O)c1ccc(C)cc1-n1nccn1)[C@@H](C)CNc1ncc(C(F)(F)F)cn1` [Example 5], the “OX2R Kb / OX1R Kb” value at human Orexin 1 receptor (setting [6]) is 1783.
Consider `Cc1nc(C(=O)N(C)CCNc2ncc(Br)cn2)c(-c2ccc(F)cc2)s1` [Example 6 in WO03/051872], for which, on OX2R [4], the “OX2R pKb” value is recorded as below 6.6 to 7.4. Further, at OX1R [5], the “OX1R pKb” value is recorded as 6.4 to 7.4.
`CCN(C(=O)c1nc(C)sc1-c1ccccc1)[C@@H](C)CNc1ncc(C(F)(F)F)cn1` [Example 6]: the “OX2R Kb / OX1R Kb” value on human Orexin 1 receptor (setting [6]) is listed as 527.
Take `CCN(C(=O)c1ccc(Cl)cc1-n1nccn1)[C@@H](C)CNc1ncc(C(F)(F)F)cn1` [Example 7]: the “OX2R Kb / OX1R Kb” value at human Orexin 1 receptor (setting [6]) is 922.
Consider `CCN(C(=O)c1nc(C)sc1-c1ccc(F)cc1)[C@@H](C)CNc1ncc(C(F)(F)F)cn1` [Example 8], for which, on human Orexin 1 receptor (setting [6]), the “OX2R Kb / OX1R Kb” value was determined as 367.
For `CCN(C(=O)c1cc(C)ccc1-n1nccn1)[C@@H](C)CNc1ccc(Cl)cn1` [Example 10], at human Orexin 1 receptor (setting [6]), the “OX2R Kb / OX1R Kb” value is given as 403.
With `CCN(C(=O)c1cccc(F)c1-c1ncccn1)[C@@H](C)CNc1ccc(C(F)(F)F)cn1` [Example 11], the “OX2R Kb / OX1R Kb” value at human Orexin 1 receptor (setting [6]) was 212.
Regarding `CCN(C(=O)c1cccc(F)c1-c1ncccn1)[C@@H](C)CNc1ccc(F)c(C(F)(F)F)n1` [Example 12], the “OX2R Kb / OX1R Kb” value on human Orexin 1 receptor (setting [6]) was 216.
On to `CCN(C(=O)c1cc(F)ccc1-c1ncccn1)[C@@H](C)CNc1ncc(C(F)(F)F)cc1F` [Example 13], for which, on human Orexin 1 receptor (setting [6]), the “OX2R Kb / OX1R Kb” value is recorded as 438.
Same read-out and setting: the same measure for `CCN(C(=O)c1ccc(C)c(C)c1-n1nccn1)[C@@H](C)CNc1ccc(Cl)cn1` [Example 14]: 1018.
`CCN(C(=O)c1cccc(F)c1-n1nccn1)[C@@H](C)CNc1ccc(C(F)(F)F)cn1` [Example 15]: the “OX2R Kb / OX1R Kb” value on human Orexin 1 receptor (setting [6]) was 880.
Same read-out and setting: the same measure for `CCN(C(=O)c1cccc(F)c1-n1nccn1)[C@@H](C)CNc1ncc(C(F)(F)F)cc1F` [Example 16]: 560; for `CCN(C(=O)c1cccc(F)c1-n1nccn1)[C@@H](C)CNc1ccc(Cl)cn1` [Example 17]: 268.
With `CCN(C(=O)c1cccc(F)c1-n1nccn1)[C@@H](C)CNc1ccc(F)c(C(F)(F)F)n1` [Example 18], at human Orexin 1 receptor (setting [6]), the “OX2R Kb / OX1R Kb” value was 209.
With `CCN(C(=O)c1nccc(C(F)(F)F)c1-c1ccn(C)n1)[C@@H](C)COc1ccc(C(F)(F)F)cn1` [Example 19], on human Orexin 1 receptor (setting [6]), the “OX2R Kb / OX1R Kb” value amounted to 230.
The same measure, in the same setting: with `CCN(C(=O)c1ccc(OC)cc1-n1nccn1)[C@@H](C)CNc1ncc(C(F)(F)F)cn1` [Example 20] the figure was 1264.
